Laboratory results as given in patent publication US10913736B2 (UNIVERSITY OF WASHINGTON, priority 2014, dated 2021).
In brackets after ≈: the same amount, converted by molar mass. Several values for one entry are separate records, joined by “and”; a condition that tells them apart may be missing. Identical values can stand only once. Like-named read-outs stand apart in the source and are kept apart here.

How the values were obtained:
MetRS (T. brucei) = MetRS (T. brucei) (Trypanosoma brucei brucei, UniProt Q38C91); assay: MetRS (T. brucei) ATP depletion assay using Kinase-Glo; type: biochemical
MetRS (T. brucei), sequence (Q38C91 entry or part of it): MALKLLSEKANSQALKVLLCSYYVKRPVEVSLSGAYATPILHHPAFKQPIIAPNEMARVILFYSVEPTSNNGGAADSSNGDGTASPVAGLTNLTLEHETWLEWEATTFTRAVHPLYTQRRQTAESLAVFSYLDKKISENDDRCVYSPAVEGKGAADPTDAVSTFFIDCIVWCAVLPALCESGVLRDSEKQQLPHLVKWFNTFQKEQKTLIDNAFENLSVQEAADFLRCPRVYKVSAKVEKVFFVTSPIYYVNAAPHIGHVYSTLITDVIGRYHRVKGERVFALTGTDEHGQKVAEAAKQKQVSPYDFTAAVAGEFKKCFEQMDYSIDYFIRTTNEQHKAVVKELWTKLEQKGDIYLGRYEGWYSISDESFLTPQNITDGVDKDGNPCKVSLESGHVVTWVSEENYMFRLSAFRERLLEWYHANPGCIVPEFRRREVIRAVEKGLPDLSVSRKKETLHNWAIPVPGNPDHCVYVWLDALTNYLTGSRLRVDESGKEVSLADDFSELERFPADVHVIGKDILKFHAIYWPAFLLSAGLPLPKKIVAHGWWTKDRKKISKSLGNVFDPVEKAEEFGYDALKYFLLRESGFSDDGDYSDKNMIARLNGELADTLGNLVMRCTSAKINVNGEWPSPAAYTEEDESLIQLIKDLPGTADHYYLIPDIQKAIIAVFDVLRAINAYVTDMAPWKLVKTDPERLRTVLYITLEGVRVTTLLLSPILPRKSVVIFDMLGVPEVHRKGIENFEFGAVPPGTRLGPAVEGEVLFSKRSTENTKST

T. brucei = assay: Growth inhibition assay of T. brucei cell cultures (Alamar Blue, 48 h); type: cell-based
T. cruzi = T. cruzi growth inhibition EC50; type: cell-based
L. amaz = L. amaz growth inhibition EC50; type: cell-based; settings: read-out: F) L. amaz EC50
MetRS (S. aureus) = MetRS (S. aureus) (Staphylococcus aureus, UniProt Q5HII6); assay: biochemical; settings: ATP depletion, Kinase-Glo; read-out: H) MetRS (S. aureus) ATP depletion assay using Kinase-Glo with modified cpd dilution method, IC50
MetRS (S. aureus), sequence (Q5HII6 whole entry): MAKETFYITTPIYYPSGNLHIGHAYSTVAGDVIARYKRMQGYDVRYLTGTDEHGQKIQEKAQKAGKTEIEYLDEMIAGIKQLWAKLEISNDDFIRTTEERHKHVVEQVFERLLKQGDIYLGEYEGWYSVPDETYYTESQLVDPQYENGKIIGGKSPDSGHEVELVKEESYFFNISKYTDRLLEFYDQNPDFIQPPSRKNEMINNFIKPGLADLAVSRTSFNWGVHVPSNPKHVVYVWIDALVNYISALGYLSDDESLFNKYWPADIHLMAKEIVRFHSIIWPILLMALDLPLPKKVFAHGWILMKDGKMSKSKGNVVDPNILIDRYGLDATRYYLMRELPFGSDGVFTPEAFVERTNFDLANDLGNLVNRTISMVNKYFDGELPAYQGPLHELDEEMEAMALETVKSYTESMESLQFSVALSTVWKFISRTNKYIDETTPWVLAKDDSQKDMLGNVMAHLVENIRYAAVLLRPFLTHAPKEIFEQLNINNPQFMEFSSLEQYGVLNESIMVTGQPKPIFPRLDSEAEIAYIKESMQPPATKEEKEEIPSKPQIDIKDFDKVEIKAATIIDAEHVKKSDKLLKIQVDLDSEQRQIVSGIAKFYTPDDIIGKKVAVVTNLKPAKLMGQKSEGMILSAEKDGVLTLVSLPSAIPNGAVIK

S. aureus (ATCC 29213) = S. aureus (ATCC 29213) MIC/EC50; type: cell-based; settings: Staphylococcus aureus, ATCC29213; S. aureus ATCC 29213; read-out: I) S. aureus (ATCC 29213) MIC/EC50, MIC
[1] = test system: S. aureus MRSA (ATCC 43300); assay: S. aureus MRSA (ATCC 43300) MIC/EC50; type: cell-based; settings: Staphylococcus aureus; S. aureus MRSA ATCC 43300; read-out: J) S. aureus MRSA (ATCC 43300) MIC/EC50, MIC
MetRS (Giardia) = MetRS (Giardia) (Giardia intestinalis, UniProt A8BY75); assay: biochemical; settings: read-out: D) MetRS (Giardia) aminoacylation assay with modified cpd dilution method IC50
MetRS (Giardia), sequence (A8BY75 entry or part of it): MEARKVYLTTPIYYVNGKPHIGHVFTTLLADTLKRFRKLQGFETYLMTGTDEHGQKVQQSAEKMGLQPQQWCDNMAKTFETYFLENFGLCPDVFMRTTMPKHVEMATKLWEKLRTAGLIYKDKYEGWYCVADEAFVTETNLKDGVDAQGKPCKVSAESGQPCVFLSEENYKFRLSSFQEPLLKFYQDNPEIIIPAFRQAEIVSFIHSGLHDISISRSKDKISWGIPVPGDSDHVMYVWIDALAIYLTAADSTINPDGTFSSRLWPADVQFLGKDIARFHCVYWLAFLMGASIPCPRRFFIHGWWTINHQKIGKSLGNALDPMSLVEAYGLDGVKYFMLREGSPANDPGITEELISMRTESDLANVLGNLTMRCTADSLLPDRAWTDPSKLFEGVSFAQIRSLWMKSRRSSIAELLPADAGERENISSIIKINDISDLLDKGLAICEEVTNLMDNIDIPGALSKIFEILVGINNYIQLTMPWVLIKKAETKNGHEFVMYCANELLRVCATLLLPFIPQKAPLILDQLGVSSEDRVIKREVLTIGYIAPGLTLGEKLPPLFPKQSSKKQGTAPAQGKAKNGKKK

[2] = test system: Giardia intestinalis (ATCC 50580); assay: Giardia intestinalis (ATCC 50580) growth inhibition EC50; type: cell-based
E. faecalis (ATCC 29212) = E. faecalis (ATCC 29212) MIC/EC50; type: cell-based
E. faecium (ATCC 51559) = E. faecium (ATCC 51559) MIC/EC50; type: cell-based
P. fal (3D37) = P. fal (3D37) growth inhibition EC50; type: cell-based; settings: read-out: G) P. fal (3D37) EC50
[3] = Trypanosoma brucei; read-out: B) T. brucei EC50
[4] = Trypanosoma cruzi; read-out: C) T. cruzi EC50
[5] = Giardia duodenalis, ATCC50580; read-out: E) Giardia intestinalis (ATCC 50580) EC50
[6] = read-out: E) Giardia intestinalis (ATCC 50580) EC50

Compound	IC50 (MetRS (T. brucei))	EC50 (T. brucei; [3])	EC50 (T. cruzi; [4])	EC50 (L. amaz)	IC50 (MetRS (S. aureus))	MIC (S. aureus (ATCC 29213))	MIC [1]	EC50 (T. cruzi; read-out: C) T. cruzi EC50)	IC50 (MetRS (Giardia))	EC50 [2, 5]	EC50 [2, 6]	K) E. faecalis (ATCC 29212) MIC/EC50, MIC (E. faecalis (ATCC 29212))	L) E. faecium (ATCC 51559) MIC/EC50, MIC (E. faecium (ATCC 51559))	K) E. faecalis (ATCC 29212) MIC/EC50, MIC (ug/ml) (E. faecalis (ATCC 29212))	EC50 (T. brucei; read-out: B) T. brucei EC50)	EC50 (P. fal (3D37))
O=C(/C=C/Oc1ccc(Cl)cc1Cl)NCc1nc2ccc(F)nc2[nH]1 [Compound 1768, 3-(2,4-Dichloro-phenoxy)-N-(5-fluoro-3H-imidazo[4,5-b]pyridin-2-ylmethyl)-acrylamide]	18 nM	70.2 nM	1690 nM	> 1000 nM	30 nM	> 10 µg/mL	> 10 µg/mL	–	–	–	–	–	–	–	–	–
Fc1ccc2nc(NCCCN[C@@H]3CCNc4c(Cl)cc(Cl)cc43)[nH]c2n1 [Compound 1717, (4R)-6,8-dichloro-N-[3-({5-fluoro-3H-imidazo[4,5-b]pyridin-2-yl}amino)propyl]-1,2,3,4-tetrahydroquinolin-4-amine]	28 nM	–	> 4.57 nM	2850 nM	28 nM	0.157 µg/mL (≈ 0.384 µM)	0.157 µg/mL (≈ 0.384 µM)	3.72 nM	3 nM	590 nM	316 nM	> 0.04 µg/mL and 0.079 µg/mL	>0.04 µg/mL	–	–	–
Fc1ccc2nc(NCCCN[C@H]3CCOc4c(Cl)cc(Cl)cc43)[nH]c2n1 [Compound 1711, (4S)-6,8-dichloro-N-[3-({5-fluoro-3H-imidazo[4,5-b]pyridin-2-yl}amino)propyl]-3,4-dihydro-2H-1-benzopyran-4-amine]	752 nM	2820 nM	–	–	368 nM	–	–	–	–	–	–	–	>10 µg/mL	>10, >10 ug/ml	–	–
Fc1ccc2nc(NCCCN[C@@H]3CCOc4c(Cl)cc(Cl)cc43)[nH]c2n1 [Compound 1709, (4R)-6,8-dichloro-N-[3-({5-fluoro-3H-imidazo[4,5-b]pyridin-2-yl}amino)propyl]-3,4-dihydro-2H-1-benzopyran-4-amine]	8 nM	–	> 4.57 nM	1300 nM and 1130 nM	19 nM	–	–	5.05 nM	2 nM	664 nM	492 nM	–	>0.04 µg/mL	–	–	–
Clc1cc(Cl)cc(Cn2cc(Cc3nc4ccccc4[nH]3)nn2)c1 [Compound 1753, 2-({1-[(3,5-dichlorophenyl)methyl]-1H-1,2,3-triazol-4-yl}methyl)-1H-1,3-benzodiazole]	73 nM	2330 nM	> 5000 nM	–	1100 nM	–	–	–	–	–	–	–	>10 µg/mL	–	–	–
O=C(/C=C/Oc1ccc(Cl)cc1Cl)NCc1nc2ccccc2[nH]1 [Compound 1729, (2E)-N-(1H-1,3-benzodiazol-2-ylmethyl)-3-(2,4-dichlorophenoxy)prop-2-enamide]	17 nM	119 nM	> 5000 nM	> 1000 nM	27 nM	–	–	–	–	–	–	–	>10 µg/mL	–	–	–
C[C@@H](CNCc1cc(Cl)cc(Cl)c1)CNc1nc2cccnc2[nH]1 [Compound 1655, (S)-N1-(3,5-dichlorobenzyl)-N3-(1H-imidazo[4,5-b]pyridin-2-yl)-2-methylpropane-1,3-diamine]	43 nM	11.3 nM	709 nM	6740 nM	171 nM	10 µg/mL (≈ 27.5 µM)	10 µg/mL (≈ 27.5 µM)	–	–	–	–	–	–	–	7.97 nM	–
O=C(NCc1nc2ccccc2[nH]1)OCCc1ccc(Cl)cc1Cl [Compound 1701, 2-(2,4-dichlorophenyl)ethyl N-(1H-1,3-benzodiazol-2-ylmethyl)carbamate]	5 nM	1290 nM	8750 nM	–	67 nM	> 10 µg/mL	> 10 µg/mL	–	–	–	–	–	–	–	–	–
N[C@@H](CC(=O)NCc1nc2ccccc2[nH]1)Cc1ccc(Cl)cc1Cl [Compound 1720, (R)—N-((1H-benzo[d]imidazol-2-yl)methyl)-3-amino-4-(2,4-dichlorophenyl)butanamide]	70 nM	848 nM	3700 nM	–	181 nM	> 10 µg/mL	> 10 µg/mL	–	–	–	–	–	–	–	–	–
O=C(Cc1cc(Cl)cc(Cl)c1)N1CCCC(c2nc3nc(F)ccc3[nH]2)C1 (stereo not shown) [Compound 1761, 2-(3,5-dichlorophenyl)-1-(3-(5-fluoro-1H-imidazo[4,5-b]pyridin-2-yl)piperidin-1-yl)ethanone]	54 nM	996 nM	> 5000 nM	–	1910 nM	> 10 µg/mL	> 10 µg/mL	–	–	–	–	–	–	–	–	–
Fc1ccc2nc(NCCCNCc3cc(Cl)cc(Cl)c3)[nH]c2n1 [Compound 1614, [(3,5-dichlorophenyl)methyl][3-({5-fluoro-3H-imidazo[4,5-b]pyridin-2-yl}amino)propyl]amine]	16 nM	–	39.5 nM	> 1000 nM	37 nM	1.25 µg/mL (≈ 3.39 µM)	–	35.7 nM	9 nM	3420 nM	1980 nM	0.625 µg/mL	1.25 µg/mL	–	–	7710 nM
Clc1cc(Cl)cc(CNCCCNc2nc3ncccc3[nH]2)c1 [Compound 1575, N1-(3,5-dichlorobenzyl)-N3-(1H-imidazo[4,5-b]pyridin-2-yl)propane-1,3-diamine]	9 nM	9.36 nM	193 nM	> 10000 nM	35 nM	–	–	–	36 nM	–	–	–	0.625 µg/mL	–	7.64 nM	7010 nM
C[C@@H](CNCc1cc(Cl)cc(Cl)c1)CNc1nc2nc(F)ccc2[nH]1 [Compound 1673, [(3,5-dichlorophenyl)methyl][(2S)-3-({5-fluoro-3H-imidazo[4,5-b]pyridin-2-yl}amino)-2-methylpropyl]amine]	11 nM	–	1540 nM	7860 nM and 5710 nM and 8280 nM	113 nM	5 µg/mL (≈ 13.1 µM)	5 µg/mL (≈ 13.1 µM)	–	–	–	–	–	–	–	–	–
O=C(CCOc1ccc(Cl)cc1Cl)NCc1nc2ccccc2[nH]1 [Compound 1683, N-(1H-1,3-benzodiazol-2-ylmethyl)-3-(2,4-dichlorophenoxy)propanamide]	74 nM	8830 nM	> 10000 nM	> 1000 nM	–	–	–	–	> 1000 nM	> 2000 nM	–	–	–	–	–	–
